Data as given in PMC9977887, “Crocodile defensin (CpoBD13) antifungal activity via pH-dependent phospholipid targeting and membrane disruption” (Nature Communications, 2023).
Where no end group is shown, it is not given here.

What was measured:
HeLa cells = assay: MTT/MTS cell viability assay; type: cell-based, human; details: 48 h, at the assessed concentrations
Description: (§1) Human epithelial cervical cancer (HeLa, ATCC, CCL-2), prostate cancer (PC3, ATCC, CRL-1435) and histiocytic lymphoma (U937, ATCC, CRL-1593.2) cells were obtained from the American Type Culture Collection (Gaithersburg, Maryland) and cultured in RPMI-1640 medium (Thermo Fisher Scientific, Waltham, MA) supplemented with 5–10% (v/v) foetal bovine serum (FBS), 100 U/mL penicillin and 100 U/mL streptomycin (Invitrogen, Carlsbad, CA). Adult human dermal fibroblasts (AHDF, Lonza, CC-2511) cells were obtained from Lonza (Basel, Switzerland) and cultured in Dulbecco’s Modified Eagle Medium (DMEM) (Thermo Fisher Scientific) supplemented with 10% (v/v) FBS, 100 U/mL penicillin and 100 U/mL streptomycin. Human umbilical vein epithelial (HUVEC, Lonza, CC-2519) cells were obtained from Lonza and cultured in EBM-2 medium supplemented with EGM-2 SingleQuots (Lonza). All cell lines were maintained at 37 °C in a humidified incubator with 5% CO2.
(§2) Cell viability assays were performed using MTT/MTS as previously described[8].

U937 cells = assay: Propidium iodide uptake assay in serum-free medium; type: cell-based, human
Procedure: For propidium iodide uptake assays in serum-free medium, U937 cells (after centrifugation at 300 g, 5 min) were washed once in serum-free RPMI-1640, pelleted again (as previous centrifugation) and resuspended in serum-free media. […] PI (diluted in ice-cold PBS) was added to a final concentration of 1 µg/mL before analysis by flow cytometry using a BD FACSCanto II with FACSDiva 8.0.1 (BD Biosciences).

C. albicans ATCC 10231 = assay: Propidium iodide uptake assay in pH-buffered conditions (MES buffer); type: cell-based, Candida albicans; details: 30 min
Procedure: For fungal growth assays, overnight cultures of C. albicans ATCC 10231 cells (yeast peptone dextrose broth, 30°C, shaking at 160 rpm) were pelleted (2000 g, 5 min), washed once in 0.5× potato dextrose broth (BD Biosciences, Franklin Lakes, NJ) and finally resuspended in the same media. Cells were seeded onto a 96-well plate (400 cells, 50 µL) and treated with an equal volume of varying concentrations of defensin in 0.5× potato dextrose broth. After incubating the samples (24 h, 30 °C), the plates were shaken to distribute the cells and growth was determined by performing a 9-well scan (600 nm) using a Spectramax M5e microplate reader (Molecular Devices, San Jose, CA). For assays testing defensin salt tolerance, C. albicans cells were instead resuspended in 1x potato dextrose broth and treated with an equal volume of CpoBD13 + NaCl solution at their intended concentrations. Propidium iodide (PI) uptake assays were performed by preparing the cells as per the standard growth inhibition assay however they were instead seeded onto a U-bottom 96-well plate (50,000 cells, 25 µL). […] For PI uptake experiments performed at a specific pH, the same method was followed with the exception that cells were resuspended in 1× potato dextrose broth while defensin titrations were diluted in 40 mM MES buffer at the intended pH. An example PI uptake gating strategy is presented in Supplementary Fig. 1d.

Liposome pulldown = type: binding; details: for Fraction of total protein (%), bound fraction: pH 5.5 (20 mM MES); for Fraction of total protein (%), bound fraction / Fraction of total protein (%), Bound: 1 µg defensin
Procedure: Liposomes were prepared using natural chicken egg L-α-phophatidylcholine and L-α-phosphatidic acid dissolved in chloroform (Avanti Polar Lipids), and liposome pulldowns (at pH 7.4) and calcein-encapsulated liposome lysis assays were performed as previously described. For liposome pulldowns performed at pH 5.5, the same protocol was used with minor variations. The desiccated lipid films were resuspended in 20 mM MES pH 7.4 and were washed in the same buffer during the centrifugation process. After the final wash step, the liposome pellets were resuspended in 20 mM MES pH 5.5 and incubated with CpoBD13 or mutants thereof (also prepared in the same acidic buffer).

PC3 cells = assay: MTT/MTS cell viability assay; type: cell-based, human; details: 48 h, at the assessed concentrations
Description: as §1, §2

[1] = PC only liposomes, pH 7.4, replicate 1
[2] = PC only liposomes, pH 7.4, replicate 2
[3] = PC only liposomes, pH 7.4, replicate 3
[4] = PC:PA 95:5 liposomes, pH 7.4, replicate 1
[5] = PC:PA 95:5 liposomes, pH 7.4, replicate 2
[6] = PC:PA 95:5 liposomes, pH 7.4, replicate 3

Description for AHDF cells: as §1, §2

CpoBD13: saltwater crocodile β-defensin 13, histidine-rich, three disulphide bonds, recombinantly expressed in Pichia pastoris (NGSYYSTLQCRNNHGHCRRLCFHGEQWIGNCNGRHQHCCK; disulfide (positions not given here); also: three disulphide bonds, pairings not given here)
effect on cell viability (HeLa cells): did not affect the viability | PI positivity (%) (U937 cells; 1.5625 μM CpoBD13, replicate 1): 3.27% | PI positivity (%) (U937 cells; 1.5625 μM CpoBD13, replicate 2): 9.7% | PI positivity (%) (U937 cells; 1.5625 μM CpoBD13, replicate 3): 3.5% | PI positivity (%) (U937 cells; 3.125 μM CpoBD13, replicate 1): 2.47% | PI positivity (%) (U937 cells; 3.125 μM CpoBD13, replicate 2): 6.8% | PI positivity (%) (U937 cells; 3.125 μM CpoBD13, replicate 3): 4.1% | PI positivity (%) (U937 cells; 6.25 μM CpoBD13, replicate 1): 1.67% | PI positivity (%) (U937 cells; 6.25 μM CpoBD13, replicate 2): 10.8% | PI positivity (%) (U937 cells; 6.25 μM CpoBD13, replicate 3): 1% | PI positivity (%) (U937 cells; 12.5 μM CpoBD13, replicate 1): 3.27% | PI positivity (%) (U937 cells; 12.5 μM CpoBD13, replicate 2): 9.1% | PI positivity (%) (U937 cells; 12.5 μM CpoBD13, replicate 3): 14.3% | PI positivity (%) (U937 cells; 25 μM CpoBD13, replicate 1): 2.27% | PI positivity (%) (U937 cells; 25 μM CpoBD13, replicate 2): 13.1% | PI positivity (%) (U937 cells; 25 μM CpoBD13, replicate 3): 14.3% | PI positivity (%) (U937 cells; 50 μM CpoBD13, replicate 1): 2.77% | PI positivity (%) (U937 cells; 50 μM CpoBD13, replicate 2): 20.5% | PI positivity (%) (U937 cells; 50 μM CpoBD13, replicate 3): 18.6% | PI positivity (%) (U937 cells; 100 μM CpoBD13, replicate 1): 15.77% | PI positivity (%) (U937 cells; 100 μM CpoBD13, replicate 2): 6.8% | PI positivity (%) (U937 cells; 100 μM CpoBD13, replicate 3): 23% | membrane permeabilisation (PI uptake) (U937 cells; serum-free media, 30 min, 37°C): unable to effectively permeabilise | membrane permeabilising activity (C. albicans ATCC 10231; pH 5.5): highly effective | membrane permeabilising activity (C. albicans ATCC 10231; pH 6.5): significantly reduced | membrane permeabilising activity (C. albicans ATCC 10231; pH 7.5): most dramatic loss of activity | Fraction of total protein (%), bound fraction (Liposome pulldown; PC only liposomes, replicate 1): 18.4161% | Fraction of total protein (%), bound fraction (Liposome pulldown; PC only liposomes, replicate 2): 18.4773% | Fraction of total protein (%), bound fraction (Liposome pulldown; PC only liposomes, replicate 3): 29.8053% | Fraction of total protein (%), Bound (Liposome pulldown; [1]): 12.3509% | Fraction of total protein (%), Bound (Liposome pulldown; [2]): 1.776% | Fraction of total protein (%), Bound (Liposome pulldown; [3]): 33.499% | Fraction of total protein (%), Unbound (Liposome pulldown; [1]): 82.3399% | Fraction of total protein (%), Unbound (Liposome pulldown; [2]): 73.2719% | Fraction of total protein (%), Unbound (Liposome pulldown; [3]): 23.4493% | binding to PA-enriched liposomes (Liposome pulldown; PC:PA 95:5, pH 7.4): preferentially bound | Fraction of total protein (%), bound fraction (Liposome pulldown; PC:PA 95:5 liposomes, replicate 1): 88.2406% | Fraction of total protein (%), bound fraction (Liposome pulldown; PC:PA 95:5 liposomes, replicate 2): 92.9019% | Fraction of total protein (%), bound fraction (Liposome pulldown; PC:PA 95:5 liposomes, replicate 3): 89.3441% | Fraction of total protein (%), Bound (Liposome pulldown; [4]): 40.526% | Fraction of total protein (%), Bound (Liposome pulldown; [5]): 42.0716% | Fraction of total protein (%), Bound (Liposome pulldown; [6]): 52.0773% | Fraction of total protein (%), Unbound (Liposome pulldown; [4]): 36.1151% | Fraction of total protein (%), Unbound (Liposome pulldown; [5]): 13.782% | Fraction of total protein (%), Unbound (Liposome pulldown; [6]): 17.5375% | binding to PC only liposomes (Liposome pulldown; pH 7.4): negligible binding | effect on cell viability (PC3 cells): did not affect the viability | effect on cell viability (AHDF cells): did not affect the viability
